Test results from patent publication US5663297A, “Antithrombic peptides” (Hoffmann-La Roche Inc., priority 1989, dated 1997).
*1 amine or outer side, *2 acyl side, *3 side chain or, on linkers, in order; H or OH if unused. Where a SMILES comes first, the peptide text is derived from it. [ ]: non-standard residue; d: D form. The star is where a group is joined. X1 = O=C(NCCN(CC(=O)[*:2])[*:1])OCc1ccccc1; 1Nal = N[C@@H](Cc1cccc2ccccc12)C(=O)O; Gly(N-2-aminoethyl) = NCCNCC(=O)O; Cbz = O=C(OCc1ccccc1)*

Key:
[1] = molecular target: T1, fibrinogen receptor, glycoprotein IIb/IIIa (Homo sapiens, UniProt P05106+P08514); assay: Inhibition of fibrinogen binding to immobilized glycoprotein IIb/IIIa (ELISA); details: concentration required to inhibit binding of fibrinogen to the immobilized receptor from human blood platelets by 50%
T1 construct: from tissue
Procedure: The glycoprotein IIb/IIIa is obtained-from Triton X-100 extracts of human blood platelets and purified by lectin affinity chromatography (Analytical Biochemistry 151, 1985, 169-177) and chromatography on an Arg-Gly-Asp-Ser affinity column (Science 231, 1986, 1559-62). The thus-obtained receptor protein is bonded to microtitre plates. The specific binding of fibrinogen to the immobilized receptor is determined with the aid of an ELISA system ("enzyme-linked immunosorbent assay"). The IC50 values hereinafter correspond to that concentration of the test substance which is required to inhibit the binding of fibrinogen to the immobilized receptor by 50%: […]

mouse = assay: Acute toxicity, intravenous, mouse; type: in vivo; details: intravenously in the mouse
Procedure: The compounds of formula I have a low toxicity. Thus the product of Example 2 has a LD50 of 600 mg/kg intravenously in the mouse.

T1 sequence (P08514 32-887 limits assumed): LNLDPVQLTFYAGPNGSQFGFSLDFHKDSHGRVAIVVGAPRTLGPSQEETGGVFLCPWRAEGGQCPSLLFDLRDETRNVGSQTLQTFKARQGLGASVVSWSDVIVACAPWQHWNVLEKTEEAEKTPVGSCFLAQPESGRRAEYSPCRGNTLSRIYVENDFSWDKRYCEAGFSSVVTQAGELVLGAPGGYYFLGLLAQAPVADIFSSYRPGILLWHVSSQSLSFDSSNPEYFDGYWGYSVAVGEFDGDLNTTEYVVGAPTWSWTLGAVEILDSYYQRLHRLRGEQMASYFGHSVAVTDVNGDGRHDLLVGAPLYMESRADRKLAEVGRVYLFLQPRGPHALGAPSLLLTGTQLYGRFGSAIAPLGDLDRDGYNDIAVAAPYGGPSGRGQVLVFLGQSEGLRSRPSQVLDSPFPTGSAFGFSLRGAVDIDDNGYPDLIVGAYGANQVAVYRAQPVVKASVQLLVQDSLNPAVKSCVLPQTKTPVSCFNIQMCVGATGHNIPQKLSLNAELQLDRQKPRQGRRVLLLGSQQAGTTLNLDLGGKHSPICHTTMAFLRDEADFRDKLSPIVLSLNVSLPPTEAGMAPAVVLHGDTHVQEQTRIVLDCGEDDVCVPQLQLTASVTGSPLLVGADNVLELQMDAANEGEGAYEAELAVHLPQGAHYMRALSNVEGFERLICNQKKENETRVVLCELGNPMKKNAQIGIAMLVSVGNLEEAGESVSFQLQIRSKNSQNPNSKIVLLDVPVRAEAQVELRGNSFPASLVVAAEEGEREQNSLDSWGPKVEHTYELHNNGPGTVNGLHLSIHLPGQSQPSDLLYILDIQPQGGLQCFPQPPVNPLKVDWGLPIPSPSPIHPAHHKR
T1 sequence (P08514 891-1039 partner limits assumed): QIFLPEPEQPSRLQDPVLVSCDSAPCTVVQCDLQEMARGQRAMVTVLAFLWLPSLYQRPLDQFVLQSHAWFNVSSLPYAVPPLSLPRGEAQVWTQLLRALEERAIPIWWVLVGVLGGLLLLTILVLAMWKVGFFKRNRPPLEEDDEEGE
T1 sequence (P05106 27-788): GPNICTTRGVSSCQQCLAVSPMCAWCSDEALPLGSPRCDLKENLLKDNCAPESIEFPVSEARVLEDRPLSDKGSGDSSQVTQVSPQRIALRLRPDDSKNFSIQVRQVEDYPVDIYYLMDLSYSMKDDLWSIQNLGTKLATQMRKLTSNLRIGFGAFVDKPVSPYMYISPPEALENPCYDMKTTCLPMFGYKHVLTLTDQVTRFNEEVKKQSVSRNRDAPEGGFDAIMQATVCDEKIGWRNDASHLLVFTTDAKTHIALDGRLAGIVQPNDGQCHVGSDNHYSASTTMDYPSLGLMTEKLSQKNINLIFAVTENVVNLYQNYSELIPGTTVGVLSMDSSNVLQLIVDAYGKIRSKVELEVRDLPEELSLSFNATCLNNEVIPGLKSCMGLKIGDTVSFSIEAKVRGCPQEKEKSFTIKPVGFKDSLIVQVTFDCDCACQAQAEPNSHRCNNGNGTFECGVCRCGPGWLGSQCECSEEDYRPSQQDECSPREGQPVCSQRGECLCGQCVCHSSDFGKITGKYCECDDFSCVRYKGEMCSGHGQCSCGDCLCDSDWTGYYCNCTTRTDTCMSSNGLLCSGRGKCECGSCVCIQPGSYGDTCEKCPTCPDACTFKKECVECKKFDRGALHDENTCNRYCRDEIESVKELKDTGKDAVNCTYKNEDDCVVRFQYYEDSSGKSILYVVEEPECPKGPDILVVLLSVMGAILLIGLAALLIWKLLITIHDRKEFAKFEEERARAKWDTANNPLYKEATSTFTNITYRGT

Row | SMILES | IC50 [1] [nM] | LD50 (mouse) [mg/kg]
1 | CC(C)[C@H](NC(=O)[C@H](CC(=O)O)NC(=O)CNC(=O)C(N)Cc1ccc(C(=N)N)cc1)C(=O)O (mixture of isomers) [Example 2, [3-(p-amidinophenyl)-DL-alanyl]-Gly-Asp-Val-OH] | 16 | 600
2 | CC(C)[C@H](NC(=O)[C@H](CC(=O)O)NC(=O)CNC(=O)C(Cc1ccc(NC(=N)N)cc1)NC(=O)OC(C)(C)C)C(=O)O (mixture of isomers) [Example 15, [N-Boc-3-(p-guanidinophenyl)-DL-alanyl]-Gly-Asp-Val-OH] | 80 | 
3 | N=C(N)c1ccc(CC(N)C(=O)NCC(=O)N[C@@H](CC(=O)O)C(=O)N[C@@H](Cc2cccc3ccccc23)C(=O)O)cc1 (mixture of isomers) [Example 16, [3-(p-amidinophenyl)-DL-alanyl]-Gly-Asp-Nal(1)-OH] | 22 | 
4 | CC(C)[C@H](NC(=O)[C@H](CC(=O)O)NC(=O)CNC(=O)C(Cc1ccc(C(=N)N)cc1)NC(=O)OC(C)(C)C)C(=O)O (mixture of isomers) [Example 17, [N-Boc-3-(p-amidinophenyl)-DL-alanyl]-Gly-Asp-Val-OH] | 16 | 
5 | CC(C)[C@H](NC(=O)[C@H](CC(=O)O)NC(=O)CNC(=O)[C@H](CCCNC(=N)N)NC(=O)CN(CCNC(=O)OCc1ccccc1)C(=O)OCc1ccccc1)C(=O)O [Example 6, Z-Aeg(Z)-Arg-Gly-Asp-Val-OH] (Cbz-[X1]RGDV-OH) | 150 | 
6 | CC(C)[C@H](NC(=O)[C@H](CC(=O)O)NC(=O)CNC(=O)[C@H](CCCNC(=N)N)NC(=O)CNCCN)C(=O)O [Example 7, Aeg-Arg-Gly-Asp-Val-OH] (H-[Gly(N-2-aminoethyl)]RGDV-OH) | 90 | 
7 | N=C(N)NCCC[C@H](NC(=O)CNCCN)C(=O)NCC(=O)N[C@@H](CC(=O)O)C(=O)N[C@@H](CO)C(=O)O [Example 8, Aeg-Arg-Gly-Asp-Ser-OH] | 110 | 
8 | N=C(N)NCCC[C@H](NC(=O)CNCCN)C(=O)NCC(=O)N[C@@H](CC(=O)O)C(=O)N[C@@H](Cc1cccc2ccccc12)C(=O)O [Example 10, N-Aeg-Arg-Gly-Asp-Nal(1)-OH] (H-[Gly(N-2-aminoethyl)]RGD[1Nal]-OH) | 38 | 
9 | CC[C@H](C)[C@H](NC(=O)[C@H](CC(=O)O)NC(=O)CNC(=O)[C@H](CCCNC(=N)N)NC(=O)CNCCN)C(=O)O [Example 11, Aeg Arg- Gly-Asp-Ile-OH] (H-[Gly(N-2-aminoethyl)]RGDI-OH) | 120 | 
10 | CC(=N)NCCCC[C@H](NC(=O)OC(C)(C)C)C(=O)NCC(=O)N[C@@H](CC(=O)O)C(=O)N[C@H](C(=O)O)C(C)C [Example 12, [N2-Boc-N6 -(1-iminoethyl)-L-lysyl]Gly-Asp-Val- -OH] | 110 | 
11 | [N-]=[N+]=Nc1ccccc1C(=O)N[C@@H](CCCNC(=N)N)C(=O)NCC(=O)N[C@@H](CC(=O)O)C(=O)Nc1ccccc1C(=O)O [Example 13, N-[(o-azidobenzoyl)-Arg-Gly-Asp]-anthranilic acid] | 110 | 
12 | CC(C)[C@H](NC(=O)[C@H](CC(=O)O)NC(=O)CNC(=O)[C@H](CCCNC1=NC2(O)CCCCC2(O)N1)NC(=O)OC(C)(C)C)C(=O)O (stereo partly drawn) [Example 14, [N2-Boc-N5-(3a,4,5,6,7,7a-hexahydro-3a,7a-dihydroxy-1H-benzimidazol-2-yl)- L-ornithyl]-Gly-Asp-Val-OH] | 54 | 
13 | N=C(N)c1ccc(CCC(=O)NCC(=O)N[C@@H](CC(=O)O)C(=O)N[C@@H](Cc2cccc3ccccc23)C(=O)O)cc1 [Example 19, (p-amidinohydrocinnamoyl)-Gly Asp-Nal(1)-OH] | 11 | 
14 | CC(C)[C@H](NC(=O)[C@H](CC(=O)O)NC(=O)CNC(=O)[C@H](N)Cc1ccc(C(=N)N)cc1)C(=O)O [Example 20, [3-(p-amidinophenyl)-D-alanyl]-Gly-Asp-Val-OH] | 22 | 
15 | CC(C)[C@H](NC(=O)[C@H](CC(=O)O)NC(=O)CNC(=O)CCc1ccc(CN)cc1)C(=O)O [Example 23, (p-aminomethylhydrocinnamoyl)-Gly-Asp-Val-OH] | 210 | 
16 | CC(C)[C@H](NC(=O)[C@H](CC(=O)O)NC(=O)CNC(=O)CCc1ccc(C(=N)N)cc1)C(=O)O [Example 24, (p-amidinohydrocinnamoyl)-Gly-Asp-Val-OH] | 35 | 
17 | CC(C)[C@H](NC(=O)[C@H](CC(=O)O)NC(=O)CNC(=O)[C@@H](N)Cc1ccc(C(=N)N)cc1)C(=O)O [Example 25, [3-(p-amidinophenyl)-L-alanyl]-Gly-Asp-Val-OH] | 23 | 
18 | CC(C)[C@H](NC(=O)[C@H](CC(=O)O)NC(=O)CNC(=O)COc1ccc(C(=N)N)cc1)C(=O)O [Example 26, (p-amidinophenoxy)acetyl-Gly-Asp Val-OH] | 5 | 
19 | CC(C)[C@H](NC(=O)[C@H](CC(=O)O)NC(=O)CNC(=O)Cc1ccc(C(=N)N)cc1)C(=O)O [Example 27, (p-amidinophenyl)acetyl-Gly-Asp-Val-OH] | 1.9 | 
